According to ChEMBL document CHEMBL3616455, “Anti-adipogenic activity of a new cyclic diarylheptanoid isolated from Alnus japonica on 3T3-L1 cells via modulation of PPARγ, C/EBPα and SREBP1c signaling” (Bioorg Med Chem Lett, 2015):
The source made the active and inactive calls. The rule behind the calls is not given here.

How the values were obtained:
Mus musculus = species: Mus musculus; experiment: Inhibition of PPARgamma/C/EBPalpha/SREBP1c in mouse 3T3L1 preadipocytes assessed as inhibition of adipocyte differentiation by measuring remaining lipid content at 100 uM measured on day 8 by Oil Red O staining-based spectrophotometric analysis relative to control; assay type: cell-based
[1] = biological target: T1, Sterol regulatory element-binding protein 1 (Mus musculus) (UniProt Q9WTN3); experiment: Inhibition of SREBP1c in mouse 3T3L1 preadipocytes assessed as downregulation of SCD-1 mRNA expression at 50 to 100 uM after 8 days by qRT-PCR analysis; assay type: cell-based
T1 sequence (whole entry): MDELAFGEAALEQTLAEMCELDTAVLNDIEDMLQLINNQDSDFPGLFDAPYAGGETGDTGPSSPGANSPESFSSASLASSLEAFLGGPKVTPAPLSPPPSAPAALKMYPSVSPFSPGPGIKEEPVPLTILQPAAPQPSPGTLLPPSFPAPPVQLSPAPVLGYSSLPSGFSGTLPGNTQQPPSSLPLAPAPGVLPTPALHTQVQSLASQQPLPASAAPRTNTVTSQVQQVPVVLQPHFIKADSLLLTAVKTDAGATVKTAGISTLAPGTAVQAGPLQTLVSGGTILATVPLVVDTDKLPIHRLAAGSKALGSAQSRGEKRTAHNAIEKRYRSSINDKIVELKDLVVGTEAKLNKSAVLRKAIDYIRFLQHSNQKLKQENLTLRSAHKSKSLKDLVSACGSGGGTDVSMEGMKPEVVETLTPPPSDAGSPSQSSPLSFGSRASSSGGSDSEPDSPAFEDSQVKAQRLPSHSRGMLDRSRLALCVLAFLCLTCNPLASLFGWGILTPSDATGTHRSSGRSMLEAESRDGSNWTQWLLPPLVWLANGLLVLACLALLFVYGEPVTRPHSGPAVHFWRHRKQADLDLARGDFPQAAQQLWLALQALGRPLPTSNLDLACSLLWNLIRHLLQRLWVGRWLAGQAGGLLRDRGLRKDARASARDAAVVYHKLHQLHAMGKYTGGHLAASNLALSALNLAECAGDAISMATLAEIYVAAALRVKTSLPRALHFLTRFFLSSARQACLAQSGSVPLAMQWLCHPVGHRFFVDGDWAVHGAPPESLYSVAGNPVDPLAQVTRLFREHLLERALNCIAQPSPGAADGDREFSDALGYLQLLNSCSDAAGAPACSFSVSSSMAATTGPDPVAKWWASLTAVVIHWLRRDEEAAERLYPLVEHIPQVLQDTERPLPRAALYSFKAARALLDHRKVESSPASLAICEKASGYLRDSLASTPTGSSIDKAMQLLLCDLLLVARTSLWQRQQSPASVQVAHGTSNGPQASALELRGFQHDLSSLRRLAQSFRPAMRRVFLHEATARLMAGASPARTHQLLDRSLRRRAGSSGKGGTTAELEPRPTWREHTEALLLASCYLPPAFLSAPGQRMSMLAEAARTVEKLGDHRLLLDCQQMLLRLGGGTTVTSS

[2] = biological target: T1, Sterol regulatory element-binding protein 1 (Mus musculus); experiment: Inhibition of SREBP1c in mouse 3T3L1 preadipocytes at 50 to 100 uM after 8 days by Western blot analysis; assay type: cell-based
[3] = Downregulation of LPL mRNA expression in mouse 3T3L1 preadipocytes at 50 to 100 uM after 8 days by qRT-PCR analysis; assay type: functional, cell-based; settings: 3T3-L1
[4] = biological target: T1, Sterol regulatory element-binding protein 1 (Mus musculus); experiment: Inhibition of SREBP1c in mouse 3T3L1 preadipocytes assessed as downregulation of FAS mRNA expression at 50 to 100 uM after 8 days by qRT-PCR analysis; assay type: cell-based
[5] = biological target: T2, Peroxisome proliferator-activated receptor gamma (Mus musculus) (UniProt P37238); experiment: Inhibition of PPARgamma in mouse 3T3L1 preadipocytes at 50 to 100 uM after 8 days by Western blot analysis relative to control; assay type: cell-based
T2 sequence (whole entry): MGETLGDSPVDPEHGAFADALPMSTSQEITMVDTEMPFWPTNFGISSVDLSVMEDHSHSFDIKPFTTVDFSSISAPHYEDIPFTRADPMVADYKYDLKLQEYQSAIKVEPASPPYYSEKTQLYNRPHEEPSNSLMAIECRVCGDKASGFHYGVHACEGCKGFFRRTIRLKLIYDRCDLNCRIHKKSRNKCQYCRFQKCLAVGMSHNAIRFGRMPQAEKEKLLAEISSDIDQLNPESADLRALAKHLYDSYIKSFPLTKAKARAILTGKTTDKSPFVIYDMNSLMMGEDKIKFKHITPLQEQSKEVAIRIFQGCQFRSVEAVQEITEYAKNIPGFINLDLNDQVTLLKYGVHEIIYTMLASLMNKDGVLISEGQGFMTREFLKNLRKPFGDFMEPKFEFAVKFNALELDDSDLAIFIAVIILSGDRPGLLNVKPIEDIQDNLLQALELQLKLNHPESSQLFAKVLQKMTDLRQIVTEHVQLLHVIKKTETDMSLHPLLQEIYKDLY

[6] = Downregulation of C/EBPdelta mRNA expression in mouse 3T3L1 preadipocytes at 50 to 100 uM measured on day 2 by qRT-PCR analysis; assay type: functional, cell-based; settings: 3T3-L1
[7] = Downregulation of C/EBPbeta mRNA expression in mouse 3T3L1 preadipocytes at 50 to 100 uM measured on day 2 by qRT-PCR analysis; assay type: functional, cell-based; settings: 3T3-L1
[8] = biological target: CCAAT/enhancer-binding protein alpha (Mus musculus) (UniProt P53566); experiment: Inhibition of C/EBPalpha in mouse 3T3L1 preadipocytes at 50 to 100 uM after 8 days by Western blot analysis relative to control; assay type: cell-based
Sequence of CCAAT/enhancer-binding protein alpha (Mus musculus) (P53566 whole entry): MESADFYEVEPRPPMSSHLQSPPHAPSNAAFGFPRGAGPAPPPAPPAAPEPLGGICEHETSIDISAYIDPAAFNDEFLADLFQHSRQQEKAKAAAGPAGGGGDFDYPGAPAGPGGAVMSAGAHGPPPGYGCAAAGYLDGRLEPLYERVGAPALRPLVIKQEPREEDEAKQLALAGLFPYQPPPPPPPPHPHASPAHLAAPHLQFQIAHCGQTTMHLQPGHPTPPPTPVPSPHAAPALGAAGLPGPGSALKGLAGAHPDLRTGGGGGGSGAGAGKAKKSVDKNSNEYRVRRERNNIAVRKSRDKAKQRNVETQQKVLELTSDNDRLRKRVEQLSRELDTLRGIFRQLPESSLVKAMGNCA

Structure (SMILES): COc1cc(/C=C/C(=O)O[C@H]2[C@H](O[C@@H](CCc3ccc(O)c(O)c3)CC(=O)CCc3ccc(O)c(O)c3)OC[C@@H](O)[C@@H]2O)ccc1O
- Activity (Mus musculus): 71.3%

Structure (SMILES): Oc1ccc2cc1-c1cc(ccc1O)CC(O)C(O)CC(O)C(O)C2 (stereo not given)
- Activity (Mus musculus): 58.5%

Structure (SMILES): O=C(CCc1ccc(O)c(O)c1)C[C@H](CCc1ccc(O)c(O)c1)O[C@@H]1OC[C@@H](O)[C@H](O)[C@H]1OC(=O)/C=C/c1ccccc1
- Activity (Mus musculus): 85.6%

Structure (SMILES): O=C1CCCCc2ccc(O)c(c2)-c2cc(ccc2O)CC1
- Activity (Mus musculus): 54.4%

Structure (SMILES): O=C(O[C@@H]1Cc2c(O)cc(O)cc2O[C@@H]1c1cc(O)c(O)c(O)c1)c1cc(O)c(O)c(O)c1
- Activity (Mus musculus): 54.5%

Structure (SMILES): O=C1CCc2ccc(O)c(c2)-c2cc(ccc2O)CCC(=O)C1O
- inhibition [1]: Active
- inhibition [2]: Active
- Activity [3]: Active
- inhibition [4]: Active
- inhibition [5]: Active
- Activity [6]: Active
- Activity (Mus musculus): 11.6%
- Activity [7]: Active
- inhibition [8]: Active

Structure (SMILES): O=C(CCc1ccc(O)c(O)c1)C[C@H](CCc1ccc(O)c(O)c1)O[C@@H]1OC[C@@H](O)[C@H](O)[C@H]1OC(=O)/C=C/c1ccc(O)cc1
- Activity (Mus musculus): 95.7%
